In patent publication US20020077329A1, “EP4 receptor inhibitors to treat rheumatoid arthritis” (priority 2000, published 2002):
Marks after values point to notes of the source that are not given here.

Key:
[1] = test system: rats with adjuvant-induced arthritis; assay: Paw edema of adjuvant arthritis (hindpaw volume, hydroplethysmometer); assay type: in vivo, male, Sprague-Dawley rats; details: for % inhibition contralateral paw / % inhibition ipsilateral paw: paw edema on day 14, perorally day 0 to day 14, compound A and B 60 mg/kg bid, piroxicam 3 mg/kg qd, rofecoxib 1.5 mg/kg bid, n=8
Description: (§1) Arthritis was induced in male, Sprague-Dawley rats (115-145 g, Japan SLC Inc., Shizuoka, Japan) on Day 0 by an injection of 300 μg of M. Tuberculosis H37 RA (Difco Laboratories Inc., Detroit, Mich.) in 100 μl of liquid paraffin (Wako Pure Chemical Industries, Ltd., Osaka, Japan) into the right hind footpad (Neuroscience 78: 843-850, 1997) on Day 0.
(§2) EP4 antagonists included within Formula I as described above (compound A and B, 60 mg/kg, bid), piroxicam (Feldene®, 3 mg/kg, qd), rofecoxib (Vioxx®, 1.5 mg/kg, bid), and control vehicle were each suspended in 0.1% methylcellulose (MC) and perorally administered separately in five groups of rats from day 0 to day 14 in a volume of 1 ml per 100 g body weight.
Hindpaw volume was measured by an hydroplethysmometer (Ugo Basile, Comerio, Italy) on Day 0, immediately before adjuvant injection, and on Days 1, 4, 7, 11 and 14 after injection. Paw swelling (%) was calculated as follows (Agents and Actions 34: 63-65, 1991):
swelling (%)={Day X volume (ml)−Day 0 volume (ml)}/Day 0 volume (ml)×100.

[2] = test system: rats with adjuvant-induced arthritis; assay: Arthritic score in adjuvant arthritis (sum of the score for all four limbs); assay type: in vivo, male, Sprague-Dawley rats; details: day 14; perorally day 0 to day 14; compound A and B 60 mg/kg bid, piroxicam 3 mg/kg qd, rofecoxib 1.5 mg/kg bid; n=8
Description: as §1, §2
On Day 14, the arthritic score of each paw was evaluated as described below. The total arthritic score for each animal was the sum of the score for all four limbs (Agents and Actions 27: 356-358, 1989). […]

## CCc1nc2cc(C(F)(F)F)c(Cl)cc2n1-c1ccc(CCN(C(=O)O)S(=O)(=O)c2ccc(C)cn2)cc1.Cl
other
  melting point: 205.8 °C

## CCc1nc2c(C)nc(C)cc2n1-c1ccc(CCOC(=O)NS(=O)(=O)c2ccc(C)cc2)cc1 [Example 227, 2-[4-(2-ethyl-4,6-dimethyl-1H-imidazo[4,5-c]pyridin-1-yl)phenyl]ethyl (4-methylphenyl)sulfonylcarbamate]
other
  melting point: 158 °C

## CCc1nc2c(C)nc(C)nc2n1-c1ccc(CCOC(=O)NS(=O)(=O)c2ccc(C)cc2)cc1 [Example 228, 2-[4-(8-ethyl-2,6-dimethyl-9H-purin-9-yl)phenyl]ethyl (4-methylphenyl)sulfonylcarbamate]
other
  melting point: 162 °C

## CCc1nc2cc(C(F)(F)F)c(Cl)cc2n1-c1ccc(C[C@H](C)OC(=O)NS(=O)(=O)c2ccc(C)cc2)cc1 [Example 250, (1S)-2-{4-[6-chloro-2-ethyl-5-(trifluoromethyl)-1H-benzimidazol-1-yl]phenyl}-1-methylethyl (4-methylphenyl)sulfonylcarbamate]
other
  melting point: 200.3 °C

## CCc1nc2cc(C(C)=O)ccc2n1-c1ccc(CCOC(=O)NS(=O)(=O)c2ccc(C)cc2)cc1 [Example 332, 2-[4-(5-acetyl-2-ethyl-1H-benzimidazol-1-yl)phenyl]ethyl (4-methylphenyl)sulfonylcarbamate]
other
  melting point: 188 to 190 °C

## CN1C(C(=O)Nc2ccccn2)=C(O)c2ccccc2S1(=O)=O [Piroxicam, piroxicam]
[1]
  % inhibition contralateral paw: 96.2* %
  % inhibition ipsilateral paw: 50.8** %
[2]
  % inhibition (arthritic score): 26.7** %

## CS(=O)(=O)c1ccc(C2=C(c3ccccc3)C(=O)OC2)cc1 [Rofecoxib, rofecoxib]
[1]; during the entire experimental period (day 0 to day 14), versus disease group untreated with compound
  edema formation in the ipsilateral paws (result in words): weaker activity
[1]
  % inhibition contralateral paw: 25.6%
  % inhibition ipsilateral paw: 37.1* %
[2]
  % inhibition (arthritic score): 18.5** %
